# Experimental data from patent US11918668B2, “Method for producing glyceryl ether-containing composition, and glyceryl ether-containing composition” (ADEKA CORPORATION, priority 2018, dated 2024).
# Test: Measurement of total area by solid phase microextraction GC/FID method
# Type: physicochemical
# Set-up: unit not given here
# Conditions: total area attributable to components other than the glyceryl ethers; 1.0 g glyceryl ether, 15 minutes at 50° C., after deodorization for the stated time
# Experimental: The total area, as measured using a solid phase microextraction GC/FID method, was measured for each of glyceryl ethers 1 to 12 following the deodorization. Specifically, 1.0 g of a deodorized glyceryl ether was placed in a container, impurities and by-products contained in the glyceryl ether were adsorbed on fibers of DVB/PDMS (divinylbenzene dispersed/polydimethylsiloxane) by heating for 15 minutes at 50° C., these fibers were placed in a holder, and measurements were carried out using gas chromatography (apparatus: GC-2014, produced by Shimadzu Corporation) under the measurement conditions shown below. The total area attributable to components other than the glyceryl ethers was then calculated on the basis of a JIS K 0114 (2012) absolute calibration curve using the analysis software of the chromatography apparatus.
# Column: InertCap (registered trademark) PureWAX (length 30 m, film […] 0.50 μm, inner diameter […])
# Carrier flow rate: 124.5 mL/min
# Injection port temperature: 260° C.
# Detector temperature: 260° C.
row,Structure (SMILES),Total area
1,"CCCCCCOCC(O)CO (stereo not drawn) [Glyceryl ether 1, Monohexyl glyceryl ether]","200,000"
2,"CCCCCCOCC(O)CO (stereo not drawn) [Glyceryl ether 2, Monohexyl glyceryl ether]","120,000"
3,"CCCCCCOCC(O)CO (stereo not drawn) [Glyceryl ether 3, Monohexyl glyceryl ether]","80,000"
4,"OCC(O)COC1CCCCC1 (stereo not drawn) [Glyceryl ether 8, Monocyclohexyl glyceryl ether]","300,000"
5,"OCC(O)COC1CCCCC1 (stereo not drawn) [Glyceryl ether 9, Monocyclohexyl glyceryl ether]","150,000"
6,"OCC(O)COC1CCCCC1 (stereo not drawn) [Glyceryl ether 10, Monocyclohexyl glyceryl ether]","90,000"
7,"OCC(O)COC1CCCCC1 (stereo not drawn) [Glyceryl ether 11, Monocyclohexyl glyceryl ether]","50,000"
8,"OCC(O)COC1CCCCC1 (stereo not drawn) [Glyceryl ether 12, Monocyclohexyl glyceryl ether]","50,000"

# Further lines, results first:
row,Total area,Structure (SMILES)
1,"80,000","CCCCCCOCC(O)CO (stereo not drawn) [Glyceryl ether 4, Monohexyl glyceryl ether]"
2,"60,000","CCCCCCOCC(O)CO (stereo not drawn) [Glyceryl ether 5, Monohexyl glyceryl ether]"
3,"50,000","CCCCCCOCC(O)CO (stereo not drawn) [Glyceryl ether 6, Monohexyl glyceryl ether]"
4,"50,000","CCCCCCOCC(O)CO (stereo not drawn) [Glyceryl ether 7, Monohexyl glyceryl ether]"
